Test results as given in the kinase profiling compilation of Christmann-Franck et al. (2016).

Experiments:
Test in all cases: radiometric filter-binding kinase assay, Kinase HotSpot
Conditions in all cases: compound 0.5 µM; ATP 10 µM
[1] = biological target: BRSK1 (human) (UniProt Q8TDC3)
[2] = biological target: CAMK2B (human) (UniProt Q13554)
[3] = biological target: CAMKK1 (human) (UniProt Q8N5S9)
[4] = biological target: CDK4 CCND3 (human) (UniProt P30281+P11802)
[5] = biological target: CDK9 CCNK (human) (UniProt O75909+P50750)
[6] = biological target: CSNK1A1 (human) (UniProt P48729)
Sequence of CSNK1A1 (human) (P48729 whole entry, looked up): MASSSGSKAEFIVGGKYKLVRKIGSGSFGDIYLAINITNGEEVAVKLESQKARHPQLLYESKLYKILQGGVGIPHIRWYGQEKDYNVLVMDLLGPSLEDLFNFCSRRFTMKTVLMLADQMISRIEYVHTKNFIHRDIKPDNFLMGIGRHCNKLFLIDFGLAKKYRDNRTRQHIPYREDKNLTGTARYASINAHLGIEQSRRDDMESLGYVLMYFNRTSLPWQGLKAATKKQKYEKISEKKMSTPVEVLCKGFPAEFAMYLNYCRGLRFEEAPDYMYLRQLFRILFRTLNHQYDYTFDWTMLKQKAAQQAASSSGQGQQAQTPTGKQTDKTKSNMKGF

[7] = biological target: EGFR (human) (UniProt P00533)
[8] = biological target: EPHA5 (human) (UniProt P54756)
[9] = biological target: FGFR1 (human) (UniProt P11362)
[10] = biological target: GSK3B (human) (UniProt P49841)
Sequence of GSK3B (human) (P49841 whole entry, looked up): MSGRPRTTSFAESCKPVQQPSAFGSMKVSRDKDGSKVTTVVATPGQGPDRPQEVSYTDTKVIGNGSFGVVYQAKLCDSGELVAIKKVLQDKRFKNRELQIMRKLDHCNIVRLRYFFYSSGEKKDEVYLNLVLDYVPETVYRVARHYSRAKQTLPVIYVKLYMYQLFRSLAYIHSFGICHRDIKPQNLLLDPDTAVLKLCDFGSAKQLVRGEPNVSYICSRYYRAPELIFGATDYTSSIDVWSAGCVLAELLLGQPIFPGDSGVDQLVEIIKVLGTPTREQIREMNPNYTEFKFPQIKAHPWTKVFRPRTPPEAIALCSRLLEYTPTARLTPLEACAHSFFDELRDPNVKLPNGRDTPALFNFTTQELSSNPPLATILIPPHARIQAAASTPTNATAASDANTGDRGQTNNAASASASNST

[11] = biological target: IKBKE (human) (UniProt Q14164)
[12] = biological target: JAK1 JH1 catalytic (human) (UniProt P23458)
[13] = biological target: JAK2 JH1 JH2 (human) (UniProt O60674)
[14] = biological target: MAP3K10 (human) (UniProt Q02779)
[15] = biological target: MAP3K11 (human) (UniProt Q16584)
[16] = biological target: MAP4K5 (human) (UniProt Q9Y4K4)
[17] = biological target: MAPK1 (human) (UniProt P28482)
[18] = biological target: MAPK11 (human) (UniProt Q15759)
[19] = biological target: MAPKAPK3 (human) (UniProt Q16644)
Sequence of MAPKAPK3 (human) (Q16644 whole entry, looked up): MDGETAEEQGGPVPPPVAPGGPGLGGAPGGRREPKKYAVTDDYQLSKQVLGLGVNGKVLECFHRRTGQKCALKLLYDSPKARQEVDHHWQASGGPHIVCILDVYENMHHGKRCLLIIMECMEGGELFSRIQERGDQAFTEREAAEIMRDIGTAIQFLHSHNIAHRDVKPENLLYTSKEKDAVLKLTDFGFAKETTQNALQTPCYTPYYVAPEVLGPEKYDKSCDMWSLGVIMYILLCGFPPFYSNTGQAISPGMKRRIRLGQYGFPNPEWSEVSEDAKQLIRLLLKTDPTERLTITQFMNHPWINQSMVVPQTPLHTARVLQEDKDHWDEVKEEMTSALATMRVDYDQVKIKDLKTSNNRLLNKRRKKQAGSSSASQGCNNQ

[20] = biological target: MERTK (human) (UniProt Q12866)
[21] = biological target: MLTK (human) (UniProt Q9NYL2)
[22] = biological target: MUSK (human) (UniProt O15146)
[23] = biological target: MYLK2 (human) (UniProt Q9H1R3)
Sequence of MYLK2 (human) (Q9H1R3 whole entry, looked up): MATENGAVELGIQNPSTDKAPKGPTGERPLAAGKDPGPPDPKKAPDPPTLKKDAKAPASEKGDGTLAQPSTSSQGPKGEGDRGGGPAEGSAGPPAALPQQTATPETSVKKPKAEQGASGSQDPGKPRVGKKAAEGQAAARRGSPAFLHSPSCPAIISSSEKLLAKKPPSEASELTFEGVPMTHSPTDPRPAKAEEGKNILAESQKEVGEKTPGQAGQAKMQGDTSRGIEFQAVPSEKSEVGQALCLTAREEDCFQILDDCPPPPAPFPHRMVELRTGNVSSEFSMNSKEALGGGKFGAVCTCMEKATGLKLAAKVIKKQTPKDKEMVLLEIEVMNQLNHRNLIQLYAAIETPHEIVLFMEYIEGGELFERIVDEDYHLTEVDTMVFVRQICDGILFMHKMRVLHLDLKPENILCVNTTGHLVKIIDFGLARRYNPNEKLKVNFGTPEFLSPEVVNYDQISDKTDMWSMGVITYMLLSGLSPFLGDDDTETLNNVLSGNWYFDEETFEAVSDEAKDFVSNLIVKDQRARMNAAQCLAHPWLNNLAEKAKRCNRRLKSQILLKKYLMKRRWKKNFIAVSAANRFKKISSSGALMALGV

[24] = biological target: NEK2 (human) (UniProt P51955)
[25] = biological target: PDGFRA (human) (UniProt P16234)
Sequence of PDGFRA (human) (P16234 whole entry, looked up): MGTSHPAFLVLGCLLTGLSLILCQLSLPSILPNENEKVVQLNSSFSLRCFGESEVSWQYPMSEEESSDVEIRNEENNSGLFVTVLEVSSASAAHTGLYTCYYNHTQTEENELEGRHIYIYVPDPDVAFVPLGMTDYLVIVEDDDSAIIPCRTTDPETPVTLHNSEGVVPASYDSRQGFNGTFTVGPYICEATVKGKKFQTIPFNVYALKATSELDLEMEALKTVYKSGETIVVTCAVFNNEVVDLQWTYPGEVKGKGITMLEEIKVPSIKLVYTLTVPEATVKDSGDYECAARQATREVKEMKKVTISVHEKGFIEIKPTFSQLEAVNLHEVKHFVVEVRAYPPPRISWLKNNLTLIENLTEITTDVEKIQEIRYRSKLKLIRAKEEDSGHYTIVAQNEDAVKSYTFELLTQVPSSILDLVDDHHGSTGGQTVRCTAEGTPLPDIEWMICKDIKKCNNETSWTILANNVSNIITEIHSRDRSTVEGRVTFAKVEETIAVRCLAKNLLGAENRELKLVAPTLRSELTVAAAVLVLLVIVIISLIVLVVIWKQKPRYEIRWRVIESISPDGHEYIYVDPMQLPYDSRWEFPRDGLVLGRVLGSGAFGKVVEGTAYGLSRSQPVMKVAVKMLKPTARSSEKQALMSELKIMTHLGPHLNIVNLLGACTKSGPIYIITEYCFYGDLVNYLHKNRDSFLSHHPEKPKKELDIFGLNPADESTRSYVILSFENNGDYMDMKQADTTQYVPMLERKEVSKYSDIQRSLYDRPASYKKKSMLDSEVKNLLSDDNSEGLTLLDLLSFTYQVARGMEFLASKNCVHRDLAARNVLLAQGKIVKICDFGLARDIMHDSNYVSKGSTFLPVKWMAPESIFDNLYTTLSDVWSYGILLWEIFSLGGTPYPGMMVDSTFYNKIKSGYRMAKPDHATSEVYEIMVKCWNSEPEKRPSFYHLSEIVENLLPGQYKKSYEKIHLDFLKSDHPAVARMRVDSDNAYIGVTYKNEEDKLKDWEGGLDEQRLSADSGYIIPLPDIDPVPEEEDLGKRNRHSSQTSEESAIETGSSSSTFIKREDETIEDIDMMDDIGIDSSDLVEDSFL

[26] = biological target: PKN1 (human) (UniProt Q16512)
[27] = biological target: PKN2 (human) (UniProt Q16513)
Sequence of PKN2 (human) (Q16513 whole entry, looked up): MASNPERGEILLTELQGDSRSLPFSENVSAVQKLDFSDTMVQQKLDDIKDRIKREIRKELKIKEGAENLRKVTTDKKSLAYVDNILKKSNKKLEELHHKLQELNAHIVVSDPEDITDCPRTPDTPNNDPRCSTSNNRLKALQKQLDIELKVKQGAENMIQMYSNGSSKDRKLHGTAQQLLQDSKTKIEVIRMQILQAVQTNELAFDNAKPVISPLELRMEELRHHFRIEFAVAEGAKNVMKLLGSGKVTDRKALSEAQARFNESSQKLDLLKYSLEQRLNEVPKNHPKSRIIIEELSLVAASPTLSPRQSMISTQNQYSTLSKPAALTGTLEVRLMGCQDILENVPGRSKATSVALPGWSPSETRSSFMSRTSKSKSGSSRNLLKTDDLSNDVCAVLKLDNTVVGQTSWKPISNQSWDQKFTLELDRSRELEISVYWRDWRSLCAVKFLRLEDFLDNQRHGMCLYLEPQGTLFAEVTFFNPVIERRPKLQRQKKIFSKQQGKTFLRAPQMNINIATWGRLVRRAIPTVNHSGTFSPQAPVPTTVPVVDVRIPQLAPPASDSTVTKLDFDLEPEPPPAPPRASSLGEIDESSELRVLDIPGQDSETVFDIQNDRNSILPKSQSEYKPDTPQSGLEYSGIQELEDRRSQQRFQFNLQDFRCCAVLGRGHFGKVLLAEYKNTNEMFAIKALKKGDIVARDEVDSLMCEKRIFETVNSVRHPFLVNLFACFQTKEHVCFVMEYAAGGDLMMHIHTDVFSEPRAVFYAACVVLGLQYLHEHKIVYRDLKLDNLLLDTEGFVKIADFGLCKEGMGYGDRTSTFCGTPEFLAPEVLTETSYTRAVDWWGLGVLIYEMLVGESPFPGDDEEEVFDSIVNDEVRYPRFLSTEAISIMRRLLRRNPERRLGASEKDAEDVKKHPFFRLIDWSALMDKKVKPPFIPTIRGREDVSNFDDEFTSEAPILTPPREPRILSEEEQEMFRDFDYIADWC

[28] = biological target: PRKCE (human) (UniProt Q02156)
[29] = biological target: PRKD3 (human) (UniProt O94806)
[30] = biological target: PTK6 (human) (UniProt Q13882)
[31] = biological target: ROS1 (human) (UniProt P08922)
[32] = biological target: RPS6KA1 KD1 KD2 (human) (UniProt Q15418)
[33] = biological target: RPS6KA5 KD2 (human) (UniProt O75582)
[34] = biological target: RPS6KA6 KD1 KD2 (human) (UniProt Q9UK32)
[35] = biological target: SRMS (human) (UniProt Q9H3Y6)
Sequence of SRMS (human) (Q9H3Y6 whole entry, looked up): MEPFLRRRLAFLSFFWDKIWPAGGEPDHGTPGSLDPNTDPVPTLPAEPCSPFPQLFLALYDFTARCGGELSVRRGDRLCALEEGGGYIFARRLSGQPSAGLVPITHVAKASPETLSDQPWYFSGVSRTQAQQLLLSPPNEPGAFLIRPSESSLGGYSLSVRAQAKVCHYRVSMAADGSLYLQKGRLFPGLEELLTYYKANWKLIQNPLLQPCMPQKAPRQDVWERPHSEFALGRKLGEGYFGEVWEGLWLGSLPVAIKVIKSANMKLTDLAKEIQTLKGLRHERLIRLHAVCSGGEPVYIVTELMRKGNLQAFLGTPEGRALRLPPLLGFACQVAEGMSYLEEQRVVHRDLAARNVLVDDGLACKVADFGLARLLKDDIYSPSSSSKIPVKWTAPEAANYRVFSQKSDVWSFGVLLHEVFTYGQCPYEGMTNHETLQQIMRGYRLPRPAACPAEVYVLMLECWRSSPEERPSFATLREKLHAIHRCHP

[36] = biological target: SRPK1 (human) (UniProt Q96SB4)
[37] = biological target: STK4 (human) (UniProt Q13043)
Sequence of STK4 (human) (Q13043 whole entry, looked up): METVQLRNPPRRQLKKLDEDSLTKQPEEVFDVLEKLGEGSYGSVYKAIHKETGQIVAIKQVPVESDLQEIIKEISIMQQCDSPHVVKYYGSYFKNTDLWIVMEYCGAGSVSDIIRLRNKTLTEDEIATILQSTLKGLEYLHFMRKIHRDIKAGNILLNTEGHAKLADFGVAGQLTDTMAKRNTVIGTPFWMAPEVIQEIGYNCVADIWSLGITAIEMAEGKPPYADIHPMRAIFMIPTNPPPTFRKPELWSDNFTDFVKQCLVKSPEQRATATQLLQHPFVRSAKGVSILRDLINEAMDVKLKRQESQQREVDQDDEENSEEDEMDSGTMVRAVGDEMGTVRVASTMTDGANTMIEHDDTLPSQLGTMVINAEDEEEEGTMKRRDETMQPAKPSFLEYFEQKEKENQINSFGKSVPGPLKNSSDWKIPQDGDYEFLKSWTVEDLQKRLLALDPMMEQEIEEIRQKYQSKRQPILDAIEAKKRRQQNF

[38] = biological target: TSSK1B (human) (UniProt Q9BXA7)
[39] = biological target: TYRO3 (human) (UniProt Q06418)
[40] = biological target: WEE1 (human) (UniProt P30291)
[41] = biological target: WNK3 (human) (UniProt Q9BYP7)

Question: With `Oc1ccc(Nc2nc(-c3ccc(Cl)cc3)cs2)cc1` as the compound, how does the residual activity [1] read?
Answer: 102%

Question: What about the residual activity [2] of the same compound?
Answer: 85.8%

Question: And the residual activity [3]?
Answer: 124%

Question: And the residual activity [4]?
Answer: 108%

Question: What about the residual activity [5] of the same compound?
Answer: 102%

Question: And the residual activity [6]?
Answer: 96.4%

Question: And the residual activity [7]?
Answer: 95.3%

Question: And the residual activity [8]?
Answer: 92.6%

Question: And the residual activity [9]?
Answer: 82.5%

Question: And the residual activity [10]?
Answer: 110%

Question: What about the residual activity [11] of the same compound?
Answer: 95.9%

Question: And the residual activity [12]?
Answer: 97.1%

Question: What about the residual activity [13] of the same compound?
Answer: 101%

Question: What about the residual activity [14] of the same compound?
Answer: 100%

Question: And the residual activity [15]?
Answer: 95.3%

Question: What about the residual activity [16] of the same compound?
Answer: 110%

Question: What about the residual activity [17] of the same compound?
Answer: 106%

Question: What about the residual activity [18] of the same compound?
Answer: 105%

Question: What about the residual activity [19] of the same compound?
Answer: 94.1%

Question: And the residual activity [20]?
Answer: 97.1%

Question: What about the residual activity [21] of the same compound?
Answer: 92.7%

Question: What about the residual activity [22] of the same compound?
Answer: 99.5%

Question: What about the residual activity [23] of the same compound?
Answer: 97.1%

Question: What about the residual activity [24] of the same compound?
Answer: 110%

Question: What about the residual activity [25] of the same compound?
Answer: 101%

Question: And the residual activity [26]?
Answer: 99.5%

Question: What about the residual activity [27] of the same compound?
Answer: 93.8%

Question: And the residual activity [28]?
Answer: 99.6%

Question: What about the residual activity [29] of the same compound?
Answer: 97.7%

Question: What about the residual activity [30] of the same compound?
Answer: 87.4%

Question: What about the residual activity [31] of the same compound?
Answer: 96.9%

Question: And the residual activity [32]?
Answer: 97.7%

Question: What about the residual activity [33] of the same compound?
Answer: 109%

Question: What about the residual activity [34] of the same compound?
Answer: 117%

Question: And the residual activity [35]?
Answer: 106%

Question: And the residual activity [36]?
Answer: 103%

Question: What about the residual activity [37] of the same compound?
Answer: 106%

Question: And the residual activity [38]?
Answer: 119%

Question: And the residual activity [39]?
Answer: 102%

Question: And the residual activity [40]?
Answer: 93.2%

Question: What about the residual activity [41] of the same compound?
Answer: 98.7%
